According to patent publication US10918642B2, “N-(substituted-phenyl)-sulfonamide derivatives as kinase inhibitors” (Nerviano Medical Sciences S.R.L., priority 2016, dated 2021):

Molecular target: PERK recombinant enzyme (cytoplasmic domain corresponding to residues 540-1115) (Homo sapiens (Human), UniProt Q9NZJ5)
Test: PERK enzyme assay, Method 1: ADP-Glo Kinase Assay (quantification of ADP formed)
Type: biochemical
Conditions: 52 microM ATP, 8 nM PERK, 300 microM eIF2alpha peptide substrate, 60 minutes at room temperature
Protocol: The biochemical activity of compounds was determined by incubation with PERK recombinant enzyme (cytoplasmic domain corresponding to residues 540-1115) and elF2alpha peptide substrate (Aminoacid sequence: LLSELSRRRIRSINK—SEQ ID Nr: 1; purchased from American Peptide Company, product #341923). This was followed by:
Method 1: Quantification of the ADP Tormed from the Kinase Reaction by ADP-Glo™ Kinase Assay (Promega Cat. 9102). Utra Pure ATP was Included into ADP-Glo™ Kinase Assay kit.
Compounds were 3-fold serially diluted in order to obtain from 3.333 to 0.000169 microM final concentration, then incubated for 60 minutes at room temperature in the presence of ATP, substrate and enzyme in a final volume of 15 microL of kinase buffer in 384-well plates (Perkin Elmer cat. #6007290).
The final concentration of the different reagents is 52 microM ATP, 8 nM PERK, 300 microM substrate, 50 mM Hepes pH 7.5, 3 mM MgCl2, 1 mM DTT, 3 microM Na3VO4, 0.2 mg/ml BSA, 1% DMSO.
After 60 minutes, an equal volume (15 microL) of ADP-Glo™ Reagent was added to each well to terminate the kinase reaction and deplete the remaining ATP. After 40 minutes, 30 microL of Kinase Detection Reagent is added, which simultaneously converts ADP to ATP and allows the newly synthesized ATP to be measured using a coupled luciferase/luciferin reaction. After further 40 minutes luminescence was read by ViewLux Instrument (Perkin Elmer). The data are analyzed by GraphPad Prism software which provides sigmoidal fittings of the curves for IC50 determination using a 4 parameter logistic equation: y=bottom+(top−bottom)/(1+10^((log IC50−x)*slope))
where x is the logarithm of the inhibitor concentration, y is the response; y starts at bottom and goes to top with a sigmoid shape.

Sequence of PERK recombinant enzyme (cytoplasmic domain corresponding to residues 540-1115) (Q9NZJ5 540-1115): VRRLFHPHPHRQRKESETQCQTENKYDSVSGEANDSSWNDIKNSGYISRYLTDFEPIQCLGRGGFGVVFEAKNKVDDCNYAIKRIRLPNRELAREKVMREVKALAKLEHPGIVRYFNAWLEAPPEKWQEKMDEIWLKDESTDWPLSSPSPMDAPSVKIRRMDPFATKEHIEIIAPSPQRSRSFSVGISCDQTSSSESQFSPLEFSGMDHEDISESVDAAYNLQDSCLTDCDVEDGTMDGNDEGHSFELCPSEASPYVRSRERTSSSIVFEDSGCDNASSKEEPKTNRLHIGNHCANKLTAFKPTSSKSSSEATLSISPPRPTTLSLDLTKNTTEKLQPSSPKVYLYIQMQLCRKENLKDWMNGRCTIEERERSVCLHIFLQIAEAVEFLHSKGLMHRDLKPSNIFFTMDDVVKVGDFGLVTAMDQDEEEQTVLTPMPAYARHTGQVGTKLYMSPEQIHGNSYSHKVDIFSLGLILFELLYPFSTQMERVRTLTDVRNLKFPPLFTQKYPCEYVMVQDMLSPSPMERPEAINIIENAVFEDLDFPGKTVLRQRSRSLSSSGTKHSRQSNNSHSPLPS

| Compound | IC50 [nM] | pIC50 |
| --- | --- | --- |
| Cn1cc(-c2cccc(NS(=O)(=O)c3ccc(Cl)cc3F)c2F)c2c(N)ncnc21 [cmpd 85, N-[3-(4-Amino-7-methyl-7H-pyrrolo[2,3-d]pyrimidin-5-yl)-2-fluoro-phenyl]-4-chloro-2-fluoro-benzenesulfonamide] | 15.8 to 50.1 | – |
| COc1c(C)cc(S(=O)(=O)Nc2cccc(-c3cn(C)c4ncnc(N)c34)c2F)cc1C [cmpd 29, N-[3-(4-Amino-7-methyl-7H-pyrrolo[2,3-d]pyrimidin-5-yl)-2-fluoro-phenyl]-4-methoxy-3,5-dimethyl-benzenesulfonamide] | 15.8 to 50.1 | – |
| COc1ccc(S(=O)(=O)Nc2cccc(-c3cn(C(C)C)c4ncnc(N)c34)c2F)cc1Cl [cmpd 2, N-[3-(4-Amino-7-isopropyl-7H-pyrrolo[2,3-d]pyrimidin-5-yl)-2-fluoro-phenyl]-3-chloro-4-methoxy-benzenesulfonamide] | – | AA (7.8 ≤ pIC50) |
| Cn1cc(-c2cccc(NS(=O)(=O)c3ccc([N+](=O)[O-])cc3)c2F)c2c(N)ncnc21 [cmpd 19, N-[3-(4-Amino-7-methyl-7H-pyrrolo[2,3-d]pyrimidin-5-yl)-2-fluoro-phenyl]-4-nitro-benzenesulfonamide] | 15.8 to 50.1 | – |
| Cn1cc(-c2cccc(NS(=O)(=O)c3cnc(Cl)c(Br)c3)c2F)c2c(N)ncnc21 [cmpd 33, 5-Bromo-6-chloro-pyridine-3-sulfonic acid [3-(4-amino-7-methyl-7H-pyrrolo[2,3-d]pyrimidin-5-yl)-2-fluoro-phenyl]-amide] | 15.8 to 50.1 | – |
| COc1cc(F)c(S(=O)(=O)Nc2cccc(-c3csc4ccnc(N)c34)c2F)cc1Cl [cmpd 59, N-[3-(4-Amino-thieno[3,2-c]pyridin-3-yl)-2-fluoro-phenyl]-5-chloro-2-fluoro-4-methoxy-benzenesulfonamide] | 50.1 to 158 | – |
| Cn1cc(-c2cccc(NS(=O)(=O)c3ccc(Br)cc3F)c2F)c2c(N)ncnc21 [cmpd 22, N-[3-(4-Amino-7-methyl-7H-pyrrolo[2,3-d]pyrimidin-5-yl)-2-fluoro-phenyl]-4-bromo-2-fluoro-benzenesulfonamide] | 15.8 to 50.1 | – |
| Cn1cc(-c2cccc(NS(=O)(=O)c3cc(Cl)cc(Cl)c3)c2F)c2c(N)ncnc21 [cmpd 26, N-[2-(4-Amino-7-methyl-7H-pyrrolo[2,3-d]pyrimidin-5-yl)-2-fluoro-phenyl]-3,5-dichloro-benzenesulfonamide] | 15.8 to 50.1 | – |
| COc1ccc(S(=O)(=O)Nc2cccc(-c3cn(C)c4ncnc(N)c34)c2F)cc1C#N [cmpd 86, N-[3-(4-Amino-7-methyl-7H-pyrrolo[2,3-d]pyrimidin-5-yl)-2-fluoro-phenyl]-3-cyano-4-methoxy-benzenesulfonamide] | 15.8 to 50.1 | – |
| COc1cc(F)c(S(=O)(=O)Nc2cccc(-c3cn(C)c4ncnc(N)c34)c2F)cc1Cl [cmpd 24, N-[3-(4-Amino-7-methyl-7H-pyrrolo[2,3-d]pyrimidin-5-yl)-2-fluoro-phenyl]-5-chloro-2-fluoro-4-methoxy-benzenesulfonamide] | – | AA (7.8 ≤ pIC50) |
| COc1ccc(S(=O)(=O)Nc2cccc(-c3cn(C4CCN(C5CC5)CC4)c4ncnc(N)c34)c2F)cc1Cl [cmpd 5, N-{3-[4-Amino-7-(1-cyclopropyl-piperidin-4-yl)-7H-pyrrolo[2,3-d]pyrimidin-5-yl]-2-fluoro-phenyl}-3-chloro-4-methoxy-benzenesulfonamide] | 15.8 to 50.1 | – |
| COc1ccc(S(=O)(=O)Nc2cccc(-c3cn(C4CCN(C5CC5)CC4)c4ncnc(N)c34)c2F)cc1C [cmpd 39, N-{3-[4-Amino-7-(1-cyclopropyl-piperidin-4-yl)-7H-pyrrolo[2,3-d]pyrimidin-5-yl]-2-fluoro-phenyl}-4-methoxy-3-methyl-benzenesulfonamide] | 15.8 to 50.1 | – |
| COc1ccc(S(=O)(=O)Nc2cccc(-c3cn(C)c4ncnc(N)c34)c2F)cn1 [cmpd 81, 6-Methoxy-pyridine-3-sulfonic acid [3-(4-amino-7-methyl-7H-pyrrolo[2,3-d]pyrimidin-5-yl)-2-fluoro-phenyl]-amide] | 50.1 to 158 | – |
| Cn1cc(-c2cccc(NS(=O)(=O)c3c(F)cccc3F)c2F)c2c(N)ncnc21 [cmpd 23, N-[3-(4-Amino-7-methyl-7H-pyrrolo[2,3-d]pyrimidin-5-yl)-2-fluoro-phenyl]-2,6-difluoro-benzenesulfonamide] | 50.1 to 158 | – |
| CCN1CCC(n2cc(-c3cccc(NS(=O)(=O)c4ccc(OC)c(C)c4)c3F)c3c(N)ncnc32)CC1 [cmpd 41, N-{3-[4-Amino-7-(1-ethyl-piperidin-4-yl)-7H-pyrrolo[2,3-d]pyrimidin-5-yl]-2-fluoro-phenyl}-4-methoxy-3-methyl-benzenesulfonamide] | 15.8 to 50.1 | – |
| Cc1cc(S(=O)(=O)Nc2cccc(-c3cn(C)c4ncnc(N)c34)c2F)ccc1OC(C)C [cmpd 30, N-[3-(4-Amino-7-methyl-7H-pyrrolo[2,3-d]pyrimidin-5-yl)-2-fluoro-phenyl]-4-isopropoxy-3-methyl-benzenesulfonamide] | – | C (pIC50 < 6.8) |
| COc1ccc(S(=O)(=O)Nc2cccc(-c3cn(C)c4ncnc(N)c34)c2F)cc1OC [cmpd 17, N-[3-(4-Amino-7-methyl-7H-pyrrolo[2,3-d]pyrimidin-5-yl)-2-fluoro-phenyl]-3,4-dimethm-benzenesulfonamide] | 50.1 to 158 | – |
| Cn1cc(-c2cccc(NS(=O)(=O)c3ccc(Br)s3)c2F)c2c(N)ncnc21 [cmpd 48, 5-Bromo-thiophene-2-sulfonic acid [3-(4-amino-7-methyl-7H-pyrrolo[2,3-d]pyrimidin-5-yl)-2-fluoro-phenyl]-amide] | 15.8 to 50.1 | – |
| COc1ccc(S(=O)(=O)Nc2cccc(-c3cn(C4CCOCC4)c4ncnc(N)c34)c2F)cc1Cl [cmpd 37, N-{3-[4-Amino-7-(tetrahydro-pyran-4-yl)-7H-pyrrolo[2,3-d]pyrimidin-5-yl]-2-fluoro-phenyl}-3-chloro-4-methoxy-benzenesulfonamide] | 15.8 to 50.1 | – |
| COc1ccc(S(=O)(=O)Nc2cccc(-c3nn(C)c4ncnc(N)c34)c2F)cc1Cl [cmpd 35, N-[3-(4-Amino-1-methyl-1H-pyrazolo[3,4-d]pyrimidin-3-yl)-2-fluoro-phenyl]-3-chloro-4-methoxy-benzenesulfonamide] | – | AA (7.8 ≤ pIC50) |
| COc1ccc(S(=O)(=O)Nc2cccc(-c3cn(C)c4ncnc(N)c34)c2F)cc1C [cmpd 12, N-[3-(4-Amino-7-methyl-7H-pyrrolo[2,3-d]pyrimidin-5-yl)-2-fluoro-phenyl]-4-methoxy-3-methyl-benzenesulfonamide] | 15.8 to 50.1 | – |
| COc1cc(F)c(S(=O)(=O)Nc2cccc(-c3cn(C)c4ncnc(N)c34)c2F)cc1C [cmpd 44, N-[3-(4-Amino-7-methyl-7H-pyrrolo[2,3-d]pyrimidin-5-yl)-2-fluoro-phenyl]-2-fluoro-4-methoxy-5-methyl-benzenesulfonamide] | – | AA (7.8 ≤ pIC50) |
| COc1ccc(S(=O)(=O)Nc2cccc(-c3cn(C4CCN(C)CC4)c4ncnc(N)c34)c2F)cc1Cl [cmpd 4, N-{3-[4-Amino-7-(1-methyl-piperidin-4-yl)-7H-pyrrolo[2,3-d]pyrimidin-5-yl]-2-fluoro-phenyl}-3-chloro-4-methoxy-benzenesulfonamide] | – | AA (7.8 ≤ pIC50) |
| COc1ccc(S(=O)(=O)Nc2cccc(-c3cn(C)c4ncnc(N)c34)c2F)cc1Br [cmpd 87, N-[3-(4-Amino-7-methyl-7H-pyrrolo[2,3-d]pyrimidin-5-yl)-2-fluoro-phenyl]-3-bromo-4-methoxy-benzenesulfonamide] | – | AA (7.8 ≤ pIC50) |
| Cn1cc(-c2cccc(NS(=O)(=O)c3ccc4ccccc4c3)c2F)c2c(N)ncnc21 [cmpd 20, Naphthalene-2-sulfonic acid [3-(4-amino-7-methyl-7H-pyrrolo[2,3-d]pyrimidin-5-yl)-2-fluoro-phenyl]-amide] | – | C (pIC50 < 6.8) |
